Tests used:
Conditions in all cases: 48 h
[1] = system: NOMO1; assay: AUC of viability dose-response curve (% viability x log10 dose units); higher = less sensitive
How it was run: (§1)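 Leukemia cells adapted to each medium were seeded at 500 or 1000 cells/well in 1536-well plates and dosed with library compounds in DMSO at 11 threefold doses from 47 μM to 0.79 nM for 48 h at 37°C. CellTiter-Glo One luminescence was normalised per plate to DMSO and cell-free wells, then fitted with a four-parameter log-logistic model over log10 doses. Area under the curve was taken from this fit by the trapezoidal rule, with curves above full viability scaled and curves failing quality control removed.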

[2] = system: P12-Ichikawa; assay: as above
How it was run: as §1

[3] = system: SEM cells; assay: as above
How it was run: as §1

[4] = system: SEM cells; assay: cell viability relative to DMSO control; higher = less cytotoxic
How it was run: (§2)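 Library compounds in DMSO were pin-dosed into 1536-well plates (5 μl) holding NOMO1 or SEM (500 cells/well) or P12-Ichikawa (1000 cells/well) leukemia cells, across an 11-point threefold series of 47 μM to 0.79 nM. Each cell line had been adapted for at least four passages in each medium. CellTiter-Glo One luminescence was read after 48 h at 37°C. Viability is the per-plate percentage relative to DMSO wells, with cell-free wells as background.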

[5] = system: NOMO1; assay: as above
How it was run: as §2

[6] = system: P12-Ichikawa; assay: as above
How it was run: as §2

ClC1=C[NH]N=C1C\2NC(=N\C3=C2C(=O)CCC3)/NC4=NC5=CC=CC=C5O4 (stereo not drawn)
AUC of viability dose-response curve
Conditions | [1] | [2] | [3]
HPLM + 10% dialyzed FBS | 457 | 464 | 460
RPMI 5 mM glucose + 10% FBS | 463 | 453 | 452
RPMI 5 mM glucose + 10% dialyzed FBS | 465 | 455 | 441

CCCc1cc(C(N)=S)ccn1
[4], HPLM + 10% dialyzed FBS
Conditions | cell viability [%]
0.000781 µM | 92.5
0.00234 µM | 110
0.00702 µM | 111
0.0211 µM | 113
0.0632 µM | 114
0.19 µM | 117
0.569 µM | 85.6
1.71 µM | 56.3
5.12 µM | 119
15.4 µM | 130
46.1 µM | 133

AUC of viability dose-response curve
Conditions | [1] | [2] | [3]
HPLM + 10% dialyzed FBS | 470 | 466 | 446
RPMI 5 mM glucose + 10% FBS | 472 | 436 | 469
RPMI 5 mM glucose + 10% dialyzed FBS | 465 | 472 | 475

O=C(c1ccc(OCCN2CCCCC2)cc1)c1c(-c2ccc(O)cc2)sc2cc(O)ccc12
Conditions | cell viability [%]
[4], RPMI 5 mM glucose + 10% FBS, 0.000781 µM | 108
[4], RPMI 5 mM glucose + 10% FBS, 0.00234 µM | 122
[4], RPMI 5 mM glucose + 10% FBS, 0.00702 µM | 122
[4], RPMI 5 mM glucose + 10% FBS, 0.0211 µM | 133
[4], RPMI 5 mM glucose + 10% FBS, 0.0632 µM | 113
[4], RPMI 5 mM glucose + 10% FBS, 0.19 µM | 42
[4], RPMI 5 mM glucose + 10% FBS, 0.569 µM | 133
[4], RPMI 5 mM glucose + 10% FBS, 1.71 µM | 94.1
[4], RPMI 5 mM glucose + 10% FBS, 5.12 µM | 85.3
[4], RPMI 5 mM glucose + 10% FBS, 15.4 µM | 117
[4], RPMI 5 mM glucose + 10% FBS, 46.1 µM | 68.9
[5], HPLM + 10% dialyzed FBS, 0.000781 µM | 121
[5], HPLM + 10% dialyzed FBS, 0.00234 µM | 119
[5], HPLM + 10% dialyzed FBS, 0.00702 µM | 134
[5], HPLM + 10% dialyzed FBS, 0.0211 µM | 135
[5], HPLM + 10% dialyzed FBS, 0.0632 µM | 150
[5], HPLM + 10% dialyzed FBS, 0.19 µM | 145
[5], HPLM + 10% dialyzed FBS, 0.569 µM | 143
[5], HPLM + 10% dialyzed FBS, 1.71 µM | 133
[5], HPLM + 10% dialyzed FBS, 5.12 µM | 123
[5], HPLM + 10% dialyzed FBS, 15.4 µM | 126
[5], HPLM + 10% dialyzed FBS, 46.1 µM | 89.9

AUC of viability dose-response curve
Conditions | [1] | [2] | [3]
HPLM + 10% dialyzed FBS | 466 | 442 | 413
RPMI 5 mM glucose + 10% FBS | 475 | 442 | 415
RPMI 5 mM glucose + 10% dialyzed FBS | 462 | 413 | 384

C=C1/C(=C\C=C2/CCC[C@]3(C)[C@@H]([C@H](C)CCCC(C)(C)O)CC[C@@H]23)C[C@@H](O)C[C@@H]1O
Conditions | cell viability [%]
[4], RPMI 5 mM glucose + 10% FBS, 0.000781 µM | 105
[4], RPMI 5 mM glucose + 10% FBS, 0.00234 µM | 120
[4], RPMI 5 mM glucose + 10% FBS, 0.00702 µM | 117
[4], RPMI 5 mM glucose + 10% FBS, 0.0211 µM | 113
[4], RPMI 5 mM glucose + 10% FBS, 0.0632 µM | 123
[4], RPMI 5 mM glucose + 10% FBS, 0.19 µM | 110
[4], RPMI 5 mM glucose + 10% FBS, 0.569 µM | 126
[4], RPMI 5 mM glucose + 10% FBS, 1.71 µM | 113
[4], RPMI 5 mM glucose + 10% FBS, 5.12 µM | 92.9
[4], RPMI 5 mM glucose + 10% FBS, 15.4 µM | 98.7
[4], RPMI 5 mM glucose + 10% FBS, 46.1 µM | 57.2
[6], HPLM + 10% dialyzed FBS, 0.000781 µM | 122
[6], HPLM + 10% dialyzed FBS, 0.00234 µM | 126
[6], HPLM + 10% dialyzed FBS, 0.00702 µM | 118
[6], HPLM + 10% dialyzed FBS, 0.0211 µM | 131
[6], HPLM + 10% dialyzed FBS, 0.0632 µM | 124
[6], HPLM + 10% dialyzed FBS, 0.19 µM | 123
[6], HPLM + 10% dialyzed FBS, 0.569 µM | 120
[6], HPLM + 10% dialyzed FBS, 1.71 µM | 117
[6], HPLM + 10% dialyzed FBS, 15.4 µM | 118
[6], HPLM + 10% dialyzed FBS, 46.1 µM | 90.4

AUC of viability dose-response curve
Conditions | [1] | [2] | [3]
HPLM + 10% dialyzed FBS | 440 | 454 | 459
RPMI 5 mM glucose + 10% FBS | 448 | 445 | 449
RPMI 5 mM glucose + 10% dialyzed FBS | 448 | 458 | 450

C[C@@H](Oc1cc(-c2cnn(C3CCNCC3)c2)cnc1N)c1c(Cl)ccc(F)c1Cl
cell viability [%]
Conditions | [4] | [5] | [6]
HPLM + 10% dialyzed FBS, 0.000781 µM | 105 | – | 118
HPLM + 10% dialyzed FBS, 0.00234 µM | 121 | – | 119
HPLM + 10% dialyzed FBS, 0.00702 µM | 123 | – | 115
HPLM + 10% dialyzed FBS, 0.0211 µM | 124 | – | 118
HPLM + 10% dialyzed FBS, 0.0632 µM | 121 | – | 115
HPLM + 10% dialyzed FBS, 0.19 µM | 114 | – | 120
HPLM + 10% dialyzed FBS, 0.569 µM | 111 | – | 111
HPLM + 10% dialyzed FBS, 1.71 µM | 110 | – | 95.7
HPLM + 10% dialyzed FBS, 5.12 µM | 61.6 | – | 90.6
HPLM + 10% dialyzed FBS, 15.4 µM | 35.1 | – | 73.5
HPLM + 10% dialyzed FBS, 46.1 µM | 23.5 | – | 18.9
RPMI 5 mM glucose + 10% FBS, 0.000781 µM | 81.4 | 118 | 116
RPMI 5 mM glucose + 10% FBS, 0.00234 µM | 78.5 | 116 | 118
RPMI 5 mM glucose + 10% FBS, 0.00702 µM | 85.6 | 113 | 123
RPMI 5 mM glucose + 10% FBS, 0.0211 µM | 83.6 | 115 | 116
RPMI 5 mM glucose + 10% FBS, 0.0632 µM | 82.5 | 131 | 124
RPMI 5 mM glucose + 10% FBS, 0.19 µM | 71.3 | 129 | 117
RPMI 5 mM glucose + 10% FBS, 0.569 µM | 83.4 | 108 | 115
RPMI 5 mM glucose + 10% FBS, 1.71 µM | 77.3 | 107 | 113
RPMI 5 mM glucose + 10% FBS, 5.12 µM | 58.4 | 96.3 | 82.2
RPMI 5 mM glucose + 10% FBS, 15.4 µM | 29.5 | 71.8 | 68.9
RPMI 5 mM glucose + 10% FBS, 46.1 µM | 13.6 | 56.2 | 21.4
RPMI 5 mM glucose + 10% dialyzed FBS, 0.000781 µM | 112 | 114 | –
RPMI 5 mM glucose + 10% dialyzed FBS, 0.00234 µM | 124 | 116 | –
RPMI 5 mM glucose + 10% dialyzed FBS, 0.00702 µM | 114 | 107 | –
RPMI 5 mM glucose + 10% dialyzed FBS, 0.0211 µM | 114 | 124 | –
RPMI 5 mM glucose + 10% dialyzed FBS, 0.0632 µM | 97.1 | 118 | –
RPMI 5 mM glucose + 10% dialyzed FBS, 0.19 µM | 113 | 119 | –
RPMI 5 mM glucose + 10% dialyzed FBS, 0.569 µM | 120 | 119 | –
RPMI 5 mM glucose + 10% dialyzed FBS, 1.71 µM | 116 | 110 | –
RPMI 5 mM glucose + 10% dialyzed FBS, 5.12 µM | 91.5 | 83 | –
RPMI 5 mM glucose + 10% dialyzed FBS, 15.4 µM | 33.3 | 64.8 | –
RPMI 5 mM glucose + 10% dialyzed FBS, 46.1 µM | 28.3 | 47.4 | –

AUC of viability dose-response curve
Conditions | HPLM + 10% dialyzed FBS | RPMI 5 mM glucose + 10% FBS | RPMI 5 mM glucose + 10% dialyzed FBS
[1] | 391 | 429 | 424
[2] | 419 | 415 | 400

OC[C@H]1O[C@@H](OCCc2ccc(O)cc2)[C@H](O)[C@@H](O)[C@@H]1O
AUC of viability dose-response curve
Conditions | [1] | [2] | [3]
HPLM + 10% dialyzed FBS | 459 | 435 | 447
RPMI 5 mM glucose + 10% FBS | 458 | 456 | 432
RPMI 5 mM glucose + 10% dialyzed FBS | 464 | 461 | 419

CCNC(=O)C[C@H]1/N=C(/C2=CC=C(Cl)C=C2)C3=CC(=CC=C3[N]4C(=NN=C14)C)OC
[4], RPMI 5 mM glucose + 10% dialyzed FBS
Conditions | cell viability [%]
0.000781 µM | 122
0.00234 µM | 124
0.00702 µM | 138
0.0211 µM | 119
0.0632 µM | 141
0.19 µM | 117
0.569 µM | 155
1.71 µM | 122
5.12 µM | 108
15.4 µM | 99.4
46.1 µM | 22.2

AUC of viability dose-response curve
Conditions | [1] | [2] | [3]
HPLM + 10% dialyzed FBS | 465 | 464 | 442
RPMI 5 mM glucose + 10% FBS | 461 | 460 | 450
RPMI 5 mM glucose + 10% dialyzed FBS | 445 | 462 | 440

C[S+](=O)([O-])c1cc(F)cc2c3c(n(Cc4ccc(Cl)cc4)c12)[C@@H](CC(=O)O)CC3
AUC of viability dose-response curve
Conditions | HPLM + 10% dialyzed FBS | RPMI 5 mM glucose + 10% FBS | RPMI 5 mM glucose + 10% dialyzed FBS
[2] | 466 | 451 | 467
[3] | 477 | 468 | 461

Source: the supplement of paper PMC11451515
